Test system: Mitochondria-located protein genes
Assay: DNA chip mRNA expression in yeast, mitochondria-located protein genes (Table 2)
Type: cell-based, Saccharomyces cerevisiae S288C
Conditions: cells incubated two hours with the chemical substance
Summary of the method: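 S. cerevisiae S288C grown at 25° C. in YPD to log phase, then exposed 2 h to a toxicant at a growth-inhibiting, non-lethal concentration; untreated cells as control. Poly(A) mRNA reverse-transcribed with Cy3-dUTP or Cy5-dUTP, hybridized >12 h at 65° C. to whole-genome yeast DNA chip; value = fluorescence ratio treated/untreated.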

In the case of “manganese ethylenebis(dithiocarbamate) [(8)]”, the “The level of expressed mRNA in the presence of chemical substance/The level of expressed mRNA in the absence of chemical substance” value (yeast gene YAL039C) is reported as 1.2, the “The level of expressed mRNA in the presence of chemical substance/The level of expressed mRNA in the absence of chemical substance” value (yeast gene YBL022C) is reported as 0.4 and the “The level of expressed mRNA in the presence of chemical substance/The level of expressed mRNA in the absence of chemical substance” value (yeast gene YBL030C) is reported as 0.8. The “The level of expressed mRNA in the presence of chemical substance/The level of expressed mRNA in the absence of chemical substance” value (yeast gene YBL038W) was 1.6, the “The level of expressed mRNA in the presence of chemical substance/The level of expressed mRNA in the absence of chemical substance” value (yeast gene YBL099W) was 0.8 and the “The level of expressed mRNA in the presence of chemical substance/The level of expressed mRNA in the absence of chemical substance” value (yeast gene YBR003W) was 0.9. For the same substance, the “The level of expressed mRNA in the presence of chemical substance/The level of expressed mRNA in the absence of chemical substance” value (yeast gene YBR044C) was 1.1, the “The level of expressed mRNA in the presence of chemical substance/The level of expressed mRNA in the absence of chemical substance” value (yeast gene YBR091C) was 1.5 and the “The level of expressed mRNA in the presence of chemical substance/The level of expressed mRNA in the absence of chemical substance” value (yeast gene YBR122C) was 1.3. The “The level of expressed mRNA in the presence of chemical substance/The level of expressed mRNA in the absence of chemical substance” value (yeast gene YBR185C) was 1.1, the “The level of expressed mRNA in the presence of chemical substance/The level of expressed mRNA in the absence of chemical substance” value (yeast gene YBR221C) was 0.8 and the “The level of expressed mRNA in the presence of chemical substance/The level of expressed mRNA in the absence of chemical substance” value (yeast gene YBR251W) was 1.3. The “The level of expressed mRNA in the presence of chemical substance/The level of expressed mRNA in the absence of chemical substance” value (yeast gene YBR282W) was 1.4, the “The level of expressed mRNA in the presence of chemical substance/The level of expressed mRNA in the absence of chemical substance” value (yeast gene YCL057W) was 1.8 and the “The level of expressed mRNA in the presence of chemical substance/The level of expressed mRNA in the absence of chemical substance” value (yeast gene YCR046C) was 0.9. For the same substance, the “The level of expressed mRNA in the presence of chemical substance/The level of expressed mRNA in the absence of chemical substance” value (yeast gene YCR083W) was 1.5, the “The level of expressed mRNA in the presence of chemical substance/The level of expressed mRNA in the absence of chemical substance” value (yeast gene YDL067C) was 1.1 and the “The level of expressed mRNA in the presence of chemical substance/The level of expressed mRNA in the absence of chemical substance” value (yeast gene YDL181W) was 0.6. The “The level of expressed mRNA in the presence of chemical substance/The level of expressed mRNA in the absence of chemical substance” value (yeast gene YDL198C) was 1.1, the “The level of expressed mRNA in the presence of chemical substance/The level of expressed mRNA in the absence of chemical substance” value (yeast gene YDR079W) was 2.6 and the “The level of expressed mRNA in the presence of chemical substance/The level of expressed mRNA in the absence of chemical substance” value (yeast gene YDR178W) was 0.9. The “The level of expressed mRNA in the presence of chemical substance/The level of expressed mRNA in the absence of chemical substance” value (yeast gene YDR231C) was 1.3, the “The level of expressed mRNA in the presence of chemical substance/The level of expressed mRNA in the absence of chemical substance” value (yeast gene YDR258C) was 1.9 and the “The level of expressed mRNA in the presence of chemical substance/The level of expressed mRNA in the absence of chemical substance” value (yeast gene YDR298C) was 1.2. The “The level of expressed mRNA in the presence of chemical substance/The level of expressed mRNA in the absence of chemical substance” value (yeast gene YDR347W) was 1.2, the “The level of expressed mRNA in the presence of chemical substance/The level of expressed mRNA in the absence of chemical substance” value (yeast gene YDR377W) was 1.3 and the “The level of expressed mRNA in the presence of chemical substance/The level of expressed mRNA in the absence of chemical substance” value (yeast gene YDR529C) was 1.3. The “The level of expressed mRNA in the presence of chemical substance/The level of expressed mRNA in the absence of chemical substance” value (yeast gene YEL024W) was 1.0, the “The level of expressed mRNA in the presence of chemical substance/The level of expressed mRNA in the absence of chemical substance” value (yeast gene YEL039C) was 1.1 and the “The level of expressed mRNA in the presence of chemical substance/The level of expressed mRNA in the absence of chemical substance” value (yeast gene YER178W) was 0.8. The “The level of expressed mRNA in the presence of chemical substance/The level of expressed mRNA in the absence of chemical substance” value (yeast gene YFL016C) was 0.7, the “The level of expressed mRNA in the presence of chemical substance/The level of expressed mRNA in the absence of chemical substance” value (yeast gene YGL018C) was 0.8 and the “The level of expressed mRNA in the presence of chemical substance/The level of expressed mRNA in the absence of chemical substance” value (yeast gene YGL187C) was 0.7. The “The level of expressed mRNA in the presence of chemical substance/The level of expressed mRNA in the absence of chemical substance” value (yeast gene YGL191W) was 1.6, the “The level of expressed mRNA in the presence of chemical substance/The level of expressed mRNA in the absence of chemical substance” value (yeast gene YGR008C) was 1.9 and the “The level of expressed mRNA in the presence of chemical substance/The level of expressed mRNA in the absence of chemical substance” value (yeast gene YGR028W) was 1.4. For the same substance, the “The level of expressed mRNA in the presence of chemical substance/The level of expressed mRNA in the absence of chemical substance” value (yeast gene YGR062C) was 0.8, the “The level of expressed mRNA in the presence of chemical substance/The level of expressed mRNA in the absence of chemical substance” value (yeast gene YGR076C) was 1.9 and the “The level of expressed mRNA in the presence of chemical substance/The level of expressed mRNA in the absence of chemical substance” value (yeast gene YGR082W) was 0.8. For the same substance, the “The level of expressed mRNA in the presence of chemical substance/The level of expressed mRNA in the absence of chemical substance” value (yeast gene YGR174C) was 1.6, the “The level of expressed mRNA in the presence of chemical substance/The level of expressed mRNA in the absence of chemical substance” value (yeast gene YGR244C) was 1.8 and the “The level of expressed mRNA in the presence of chemical substance/The level of expressed mRNA in the absence of chemical substance” value (yeast gene YHR008C) was 0.9. The “The level of expressed mRNA in the presence of chemical substance/The level of expressed mRNA in the absence of chemical substance” value (yeast gene YIL155C) was 1.0, the “The level of expressed mRNA in the presence of chemical substance/The level of expressed mRNA in the absence of chemical substance” value (yeast gene YJL096W) was 1.3 and the “The level of expressed mRNA in the presence of chemical substance/The level of expressed mRNA in the absence of chemical substance” value (yeast gene YJL102W) was 0.9. The “The level of expressed mRNA in the presence of chemical substance/The level of expressed mRNA in the absence of chemical substance” value (yeast gene YJL133W) was 0.9, the “The level of expressed mRNA in the presence of chemical substance/The level of expressed mRNA in the absence of chemical substance” value (yeast gene YJL166W) was 1.4 and the “The level of expressed mRNA in the presence of chemical substance/The level of expressed mRNA in the absence of chemical substance” value (yeast gene YJL180C) was 1.0. For the same substance, the “The level of expressed mRNA in the presence of chemical substance/The level of expressed mRNA in the absence of chemical substance” value (yeast gene YJR045C) was 0.8 and the “The level of expressed mRNA in the presence of chemical substance/The level of expressed mRNA in the absence of chemical substance” value (yeast gene YJR077C) was 0.8.

From patent US8192962B2, “Processes for detecting toxic substances” (Daikin Industries, Ltd., priority 2001, dated 2012)
